{"source": "patent US20110070315A1", "about": "(priority 2009, published 2011)", "origin": "cited, not measured here", "system": "hair loss"}
{"smiles": "Cl.NCCCC[C@H](N)C(=O)O", "note": "[L—Lysine HCl, L-Lysine HCl]", "values": [{"measurement": "decreases hair loss", "value": "one half"}]}
